One block for each compound: values may come before it. Where no end group is shown, it is not given here. The star is where a group is joined. FITC = O=C1OC2(c3ccc(O)cc3Oc3cc(O)ccc32)c2ccc(NC(=S)*)cc21; Biotin = O=C1N[C@H]2[C@H](CS[C@H]2CCCCC(=O)*)N1; Ahx = NCCCCCC(=O)O
What was measured:
[1] = test system: FAN1-USP7; test: GFP-Trap co-IP after UAE inhibition, FAN1-USP7 binding; assay type: cell-based, human; conditions: HEK293T cells, 10 μM for 2 h
Description: Cells were lysed in NP-40 buffer [50 mM tris-HCl (pH 7.5), 120 mM NaCl, 1 mM EDTA, 6 mM EGTA, 15 mM sodium pyrophosphate, and 1% NP-40, supplemented with phosphatase inhibitors (20 mM NaF and 1 mM Na3VO4) and protease inhibitors (1 mM benzamidine, 0.1 mM PMSF and cOmplete™ Protease Inhibitor Cocktail)], incubated with Benzonase (Merck) for at least 30 min at 4 °C, and clarified by centrifugation. Between 1 and 3 mg of lysates were incubated with anti-FLAG M2 (Sigma-Aldrich) or ChromoTek GFP-Trap® Agarose resin (Proteintech) for 2 h or overnight at 4 °C. The beads were then washed three times with NP-40 buffer and once with TEN100 buffer. Retrieved protein complexes were boiled in SDS sample buffer and analysed by SDS-PAGE followed by immunoblotting.
(§1) Figure S1 (related to Figure 1). […]
ubiquitin. (A) HEK293eGFP-FAN1 cells were transfected either with non-targeting (Ctrl) or the indicated siRNA oligos. 24 h later, GFP-FAN1 expression was induced with Dox (100 ng/ml). 24 h post induction, cells were lysed and whole-cell extracts were subjected to GFP-Trap resin. Inputs and recovered protein complexes were analysed by immunoblotting. (B) HEK293 cells were transfected with either e.v. or GFP-FAN1-wt expressing constructs. […] Inputs and recovered protein complexes were analysed by immunoblotting. […] Inputs and recovered protein complexes were analysed by immunoblotting. […]

[2] = test system: cellular ubiquitin conjugates; test: cellular ubiquitin conjugates after UAE inhibition; assay type: cell-based; conditions: HEK293T cells, 10 μM for 2 h
Description: as §1
ubiquitin. (A) HEK293eGFP-FAN1 cells were transfected either with non-targeting (Ctrl) or the indicated siRNA oligos. 24 h later, GFP-FAN1 expression was induced with Dox (100 ng/ml). 24 h post induction, cells were lysed and whole-cell extracts were subjected to GFP-Trap resin. Inputs and recovered protein complexes were analysed by immunoblotting. (B) HEK293 cells were transfected with either e.v. or GFP-FAN1-wt expressing constructs. 48 h later, cells were lysed and whole-cell extracts were incubated with a FAN1-derived 60-mer peptide (aa 118 to 177) for 2 h and subjected to GFP-Trap resin. Inputs and recovered protein complexes were analysed by immunoblotting. (C) HEK293T cells were transfected with either e.v. or GFP-FAN1-wt expressing constructs. 48 h later, cells were either mock-treated (-) or treated (+) with TAK-243 (10 μM) for 2 h, lysed and whole-cell extracts were subjected to GFP-Trap resin. Inputs and recovered protein complexes were analysed by immunoblotting. The experiments in (A-C) were repeated three independent times.
(1 picture or pasted object on this page, not shown here)

[3] = test system: USP7; test: streptavidin pulldown of biotinylated FAN1 peptides with recombinant His-USP7; assay type: binding, human; conditions: 10 µg peptide on Strep-Tactin XT 4Flow resin, 0.5 µg recombinant USP7, 2 h at 4 °C, immunoblot; for USP7 binding of biotinylated FAN1 peptide: 12mer TRAF peptides, repeated three times; for USP7 binding of biotinylated FAN1 UBL peptide: 13mer UBL peptides
Description: (§2) Fig. 2 FAN1 associates with the TRAF-like and UBL domains of USP7. A Top: schematic representation of the human USP7 protein indicating point mutants. TRAF tumour necrosis factor receptor associated factor (orange), CD catalytic domain (cyan), UBL ubiquitin-like (yellow to brown). Bottom: HEK293^eGFP-FAN1 cells were transfected with either e.v. or the indicated FLAG-USP7 expression constructs. 24 h later, GFP-FAN1 expression was induced with Dox (100 ng/ml). 48 h post induction, cells were lysed and whole-cell extracts were subjected to IP using anti-FLAG M2 affinity resin. Inputs and recovered protein complexes were analysed by immunoblotting. Asterisk indicates IgG heavy chain from anti-FLAG M2 affinity resin. B Sequences of the biotinylated 12-mer FAN1-derived TRAF peptides. The corresponding amino acids are indicated. Key residues are highlighted in bold. B, C Biotinylated FAN1 TRAF peptides (10 µg) were immobilized on Strep-Tactin®XT-4Flow® resin and incubated with recombinant purified His-USP7. Inputs and recovered His-USP7 were analysed by immunoblotting. D Fluorescence polarization (FP) binding curves of FITC-labelled FAN1-derived 8mer peptides: wild-type (wt; black circle), P181A (green triangle), Q182A (orange diamond), S184A (red square). The corresponding amino acids are indicated. Key residues are highlighted in bold. FP was measured as a function of USP7-TRAF (aa 2–207) concentration. FP values were normalized by expressing the millipolarization (mP) of each sample relative to the corresponding wild-type peptide. Background signal was corrected by subtracting baseline FP measured in the absence of USP7-TRAF. Data are presented as the means ± SD of three biological replicates (n = 3). E Top: schematic representation of the human USP7 protein indicating truncation mutants. TRAF tumour necrosis factor receptor associated factor, CD catalytic domain, UBL ubiquitin-like. HEK293^eGFP-FAN1 cells were transfected with either e.v. or the indicated FLAG-USP7 expression constructs. 24 h later, GFP-FAN1 expression was induced with Dox (100 ng/ml). 48 h post induction, cells were lysed and whole-cell extracts were subjected to IP using anti-FLAG M2 affinity resin. Inputs and recovered protein complexes were analysed by immunoblotting. Asterisk indicates IgG heavy chain from anti-FLAG M2 affinity resin. The experiments in (A–C, E) were repeated three independent times.
For peptide pull-down assays, biotinylated FAN1 peptides were incubated with Strep-Tactin® XT 4Flow® resin (IBA LifeScience) at room temperature for 30 minutes and washed four times with 0.1% Triton-PBS and two times with HNE buffer (20 mM HEPES pH 7.5, 0.2 mM EDTA, 0.5% NP-40, 150 mM NaCl, 0.5 mM DTT, 0.1% BSA, 0.5 mM PMSF). […] Beads were then washed three times with HNE buffer, once with TEN300 (20 mM Tris-HCl pH 7.4, 0.1 mM EDTA and 300 mM NaCl) and once with TEN100 buffer. Complexes were boiled in SDS sample buffer and analysed by SDS–PAGE followed by immunoblotting.
Figure S3 (Related to Figure 2). USP7 contacts FAN1 via its UBL domain. […]
Inputs and recovered MBP-His-FAN1 were analysed by immunoblotting. (C) Sequences of the biotinylated 13-mer FAN1-derived UBL peptides. The corresponding amino acids are indicated. Key residues are highlighted in bold. (C and D) Biotinylated FAN1 UBL peptides (10 µg) were immobilized on Strep-Tactin® XT 4Flow® resin and incubated with recombinant purified His-USP7. Inputs and recovered His-USP7 were analysed by immunoblotting. […]
The experiments in (A-E) were repeated three independent times.

[4] = test system: USP7 TRAF (aa 2-207); test: fluorescence polarization assay, FITC-labelled FAN1-derived peptides; assay type: binding, human; conditions: 8mer FITC-labelled peptides; 20 mM HEPES pH 7.4, 50 mM KCl, 1 mM TCEP, 0.005% Tween-20, 0.2% DMSO; USP7 TRAF 14-point 2-fold from 200 µM; 1 µL of 200 nM peptide added to 19 µL; n = 3
Description: as §2, with “Data are presented as the means ± SD of three biological replicates (n = 3). E Top: schematic representation of the human USP7 protein indicating truncation mutants. TRAF tumour necrosis factor receptor associated factor, CD catalytic domain, UBL ubiquitin-like. HEK293^eGFP-FAN1 cells were transfected with either e.v. or the indicated FLAG-USP7 expression constructs. 24 h later, GFP-FAN1 expression was induced with Dox (100 ng/ml). 48 h post induction, cells were lysed and whole-cell extracts were subjected to IP using anti-FLAG M2 affinity resin.” left out, “Asterisk indicates IgG heavy chain from anti-FLAG M2 affinity resin. The experiments in (A–C, E) were repeated three independent times.” left out
USP7 TRAF (aa 2-207) was serially diluted (14-point, 2-fold) in assay buffer (20 mM HEPES (pH 7.4), 50 mM KCl, 1 mM TCEP, 0.005% Tween-20 (v/v), 0.2% DMSO (v/v)) from a top concentration of 200 µM. […] Fluorescence polarization (mP, millipolarization units) was measured using Agilent BioTek Synergy H1 with excitation 485 nm, emission 528 nm, gain 80, in a kinetic read (6 measurements in 30 min). […]

Compound: Biotin-SLASALSRAYVKA-NH2 [UBL2 2KA (12mer), FAN1 UBL2 K158A/K162A (2KA) 13mer peptide]
USP7 binding of biotinylated FAN1 UBL peptide [3]: did not abolish USP7 association | USP7 binding of biotinylated FAN1 UBL peptide ([3]; listed as K158A/K162A ‘UBL2’ mutant peptide): no reduction in USP7 binding

Compound: Biotin-SLASKLSRKYVKA-NH2 [UBL2 (12mer), biotinylated FAN1-derived 13mer UBL peptide with 158-KLSRK-162]
USP7 binding of biotinylated FAN1 UBL peptide [3]: exhibited detectable USP7 binding

Compound: {FITC-Ahx}-SSPQSAKS [TRAF3 S184A (8mer), FITC-labelled FAN1-derived 8mer peptide, S184A]
binding to the USP7 TRAF domain (FP) [4]: markedly impaired binding

Compound: {FITC-Ahx}-SSPQSSKS [TRAF3 (8mer), FITC-labelled FAN1-derived 8mer peptide, wild-type]
binding to the USP7 TRAF domain (FP) [4]: bound efficiently to the USP7 TRAF domain

More lines, main results first:

FAN1-USP7 binding [1]: did not impact FAN1-USP7 binding
Compound: NS(=O)(=O)OC[C@H]1C[C@@H](Nc2ccnc3cc(-c4cccc(SC(F)(F)F)c4)nn23)[C@H](O)[C@@H]1O [TAK-243]
cellular ubiquitin conjugates [2]: depletion of cellular ubiquitin conjugates

USP7 binding of biotinylated FAN1 peptide ([3]; listed as S184A ‘TRAF3’ mutant peptide): failed to bind | USP7 binding of biotinylated FAN1 peptide ([3]; listed as serine residue 184 to alanine (S184A)): abrogated USP7 binding
Compound: Biotin-AGSSPQSAKSTV-NH2 [TRAF3 S184A (12mer), biotinylated 12mer FAN1 peptide, S184A]

USP7 binding of biotinylated FAN1 peptide [3]: weak USP7 binding
Compound: Biotin-PLEQGSSCNGPG-NH2 [TRAF4 (12mer), biotinylated 12mer FAN1 peptide containing the 358-EQGS-361 motif]

binding to the USP7 TRAF domain (FP) [4]: did not abolish the interaction
Compound: {FITC-Ahx}-SSAQSSKS [TRAF3 P181A (8mer), FITC-labelled FAN1-derived 8mer peptide, P181A]
